One assay deals with T1, Dihydrofolate reductase (Bos taurus) (UniProt P00376).
T1 sequence (whole entry): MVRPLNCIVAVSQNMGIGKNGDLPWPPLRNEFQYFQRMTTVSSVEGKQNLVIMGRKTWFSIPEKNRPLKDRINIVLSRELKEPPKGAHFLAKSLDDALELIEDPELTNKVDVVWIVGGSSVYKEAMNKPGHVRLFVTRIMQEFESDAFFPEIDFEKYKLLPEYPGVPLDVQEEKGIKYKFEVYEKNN
Settings: not given
Compound `Nc1nc(O)c2c(n1)CCC1CN(c3ccc(C(=O)NC(CCC(=O)O)C(=O)O)cc3)C=[N+]21` (configuration not stated) registered an ID50 of 4.6 µM.

The test system of a further assay is Epidermoid carcinoma cell line. As to the kind of experiment: Concentration required for inhibition of colony formation (cytotoxicity) against human epidermoid carcinoma cell number 2. Format: functional. Particulars: read-out: ED50 (the source's name).
As to `Nc1nc(O)c2nc(CN(C=O)c3ccc(C(=O)NC(CCC(=O)O)C(=O)O)cc3)ccc2n1` (configuration not stated), the EC50 amounted to 32 µM.
Regarding `Nc1nc(O)c2c(n1)CCC(CN(C=O)c1ccc(C(=O)NC(CCC(=O)O)C(=O)O)cc1)N2` (configuration not stated), the EC50 stood at 28 µM.
The same measure, in the same setting: the figure for `Nc1nc(O)c2c(n1)CCC1CN(c3ccc(C(=O)NC(CCC(=O)O)C(=O)O)cc3)C=[N+]21` (configuration not stated) is 8 µM; for `Nc1nc(O)c2nc(CNc3ccc(C(=O)NC(CCC(=O)O)C(=O)O)cc3)ccc2n1` (configuration not stated) it is 23 µM; for `Nc1nc(O)c2nc(C(=O)Nc3ccc(C(=O)NC(CCC(=O)O)C(=O)O)cc3)ccc2n1` (configuration not stated) it is 100 µM.
As for `CN(Cc1cnc2nc(N)nc(N)c2n1)c1ccc(C(=O)N[C@@H](CCC(=O)O)C(=O)O)cc1` [METHOTREXATE], the EC50 was found to be 0.001 µM.

The values above are taken from ChEMBL document CHEMBL1121734, “New synthesis of N-[4-[[(2-amino-4(3H)-oxopyrido[3,2-d]pyrimidin-6-yl)methyl]amino]benzoyl]-L-glutamic acid (8-deazafolic acid) and the preparation of some 5,6,7,8-tetrahydro derivatives” (1981).
